Source: patent US6124284A, “Bicyclic amide derivatives and their use as muscle relaxants” (Glaxo Wellcome Inc., priority 1998, dated 2000)

Tested on: rat
Test: Established adjuvant arthritis (adjuvant-induced polyarthritis in the rat)
Type: in vivo, female Lewis rats
Details: 50 mg/kg b.i.d.
Protocol: The procedures for this test have been described in detail by R. Vinegar, J. F. Truax, J. L. Selph. A. Lea, and P. R. Johnston (J. Immunopharmacol. 1:497-520, 1979). The rats used in these studies were female Lewis rats whose starting weight was 190±10 g. Arthritic rats were assigned to treatment groups consisting of six animals each. Fed rats were dosed by oral gavage starting on day 21 post adjuvant injection; therapy was continued until day 28. The incidence and severity of arthritic lesions were assessed using a modification of the scoring procedure described by H. L. F. Currey and M. Ziff (J. Exp. Med. 121:185-203, 1968). Briefly, the bilateral joints were scored for erythema, edema, and ankylosis as outlined below:
The maximal possible score per rat was 40. Experimental results were analyzed by one-way ANOVA, followed by post hoc comparisons of treatment effects versus untreated arthritic control using the Newman-Keuls test. The percent inhibition of each drug-treated group was calculated from the mean relative to the arthritic control.

`NC(=O)/C=C1\CCc2c(F)cc(F)cc21` [Example 5, (E)-2-(4,6 Difluoro-1-indanylidene)acetamide] was tested, and the arthritic scores (oral gavage, days 22, 25, and 27, versus untreated arthritic control) was “significantly (p<0.01) lowered arthritic scores”, the Spleen weight (postmortem on day 27) was “significantly reduced (p<0.01)” and the plasma fibrinogen (postmortem on day 27) was “significantly reduced (p<0.01)”.
